Earlier results in patent US10590413B2, “Chiral control” (WAVE LIFE SCIENCES LTD., priority 2012, dated 2020).

System: NK Lytic Activity
Details: cited from earlier work; for NK Lytic Activity (LU): human PBMC cultured with ODN 6 μg/ml for 24 hr, lysis of 51Cr-labeled K562 cells; for LU (NK lytic activity): human PBMC, ODN 6 μg/ml for 24 hr, lysis of Cr-labeled K562 cells, cells alone 0.01

Substance	NK Lytic Activity (LU)	LU (NK lytic activity)
1779 (DNA ACCATGGACGTACTGTTTCCCCTC; chemistry not given here) [Oligonucleotide 1779]	0.02 LU	0.02 LU
1780 (DNA ACCATGGACGGTCTGTTTCCCCTC; chemistry not given here) [Oligonucleotide 1780]	0.29 LU	0.29 LU
1781 (DNA ACCATGGACGTTCTGTTTCCCCTC; chemistry not given here) [Oligonucleotide 1781]	0.38 LU	0.38 LU
1823 (DNA GCATGACGTTGAGCT; chemistry not given here) [Oligonucleotide 1823]	0.08 LU	0.08 LU
1824 (DNA CACGTTGAGGGGCAT; chemistry not given here) [Oligonucleotide 1824]	0.01 LU	0.01 LU
1825 (DNA CTGCTGAGACTGGAG; chemistry not given here) [Oligonucleotide 1825]	0.01 LU	0.01 LU
1828 (DNA TCAGCGTGCGCC; chemistry not given here) [Oligonucleotide 1828]	0.01 LU	0.01 LU
1829 (DNA ATGACGTTCCTGACGTT; chemistry not given here) [Oligonucleotide 1829]	0.42 LU	0.42 LU
1834 (DNA TCTCCCAGCGGGCGCAT; chemistry not given here) [Oligonucleotide 1834]	0.00 LU	0.00 LU
1836 (DNA TCTCCCAGCGCGCGCCAT; chemistry not given here) [Oligonucleotide 1836]	0.46 LU	0.46 LU
1842 (DNA TCGTCGCTGTCTCCGCTTCTT; chemistry not given here) [Oligonucleotide 1842]	0.06 LU	0.06 LU
1851 (DNA TCCTGACGTTCCTGACGTT; chemistry not given here) [Oligonucleotide 1851]	2.32 LU	2.32 LU
